Measured values reported in patent EP0191624A2, “Gold-purine antitumor agents” (ENGELHARD CORPORATION, priority 1985, dated 1986).
Where “and” joins values, the source holds several entries; their conditions need not be identical. Equal entries are not always repeated.

Assays:
S180 ascites = experiment: Screening for anti-tumor activity against S180 ascites (increase in life span); assay type: in vivo, female CFW Swiss mice; conditions: for %ILS: injected day 1; for 30-Day Survivors: survivors/mice in set
Method: The compounds were evaluated for anti-tumor activity against S180 ascites in female CFW Swiss mice by the following procedure: • CFW mice, averaging 20g, are immediately inspected and placed in newly prepared cages. On day zero the mice are inoculated with 0.2 ml. of a freshly prepared saline suspension (0.15 M NaCl) containing 1 x 10^7 tumor cells/ ml, or a total of 2 x 10^6 cells. This inoculum is freshly prepared using "transfer" mice which have been injected with tumor cells the previous week. This inoculum is the end-product of a series of steps which involves (1) the removal of the cells from the peritoneal cavity of the sacrificed transfer mouse, (2) alternate centrifugation- washing (2-3 times with cold saline) to remove occasional blood and other undesirable components, and finally (3) dilution (1:3) of the packed cell volume with saline (the final centrifugation being carried out at 1,000 rpm for 2 min.). A cell count is made on a 2,000-fold dilution of this 1:3 suspension by means of a Coulter Counter. A final dilution to 1 x 10^7 cells/ml. is made based on the averaged count. On day 1, solutions of the test compounds are prepared and the mice injected, with each mouse of a set of six being injected with the same test compound at the same dose level.
Also, on this day, two types of controls (6 mice/se are employed: (1) Normal (1 set): 0.5 ml. of the solvent medium used for the test compound, and (2) Positive control (1 set): a known anti-tumor agent (cis-(Pt(NH3)2Cl2] in saline at 8 mg./kg.), used to test the response of the biological system.
ILS values above 50% represent significant activity; those above 75% represent excellent activity.

[1] = Stability in aqueous solution with respect to reduction; assay type: physicochemical
Solubility in water = assay type: physicochemical
[2] = C. Dragulescu et al, Int. Coord. Chem. Conf. XVI 1,99 (1974); cited from earlier work
[3] = positive control in saline at 8 mg./kg., run alongside each test compound

Row | Compound | Control 30-Day Survivors (S180 ascites; [3]) | Control %ILS (S180 ascites; [3]) | stable, at least with respect to reduction, in solution [1] | soluble in water (Solubility in water) | %ILS (S180 ascites; dose 5 mg/kg) [%] | 30-Day Survivors (S180 ascites; dose 5 mg/kg) | %ILS (S180 ascites; dose 10 mg/kg) [%] | 30-Day Survivors (S180 ascites; dose 10 mg/kg) | %ILS (S180 ascites; dose 20 mg/kg) [%] | 30-Day Survivors (S180 ascites; dose 20 mg/kg) | %ILS (S180 ascites; dose 40 mg/kg) [%] | 30-Day Survivors (S180 ascites; dose 40 mg/kg) | %ILS (S180 ascites; dose 80 mg/kg) [%] | 30-Day Survivors (S180 ascites; dose 80 mg/kg) | %ILS (S180 ascites; dose 160 mg/kg) [%] | 30-Day Survivors (S180 ascites; dose 160 mg/kg) | %ILS (S180 ascites; dose 320 mg/kg) [%] | 30-Day Survivors (S180 ascites; dose 320 mg/kg) | antitumor activity in mice [2]
1 | N.N.[Cl][Pt][Cl] [Control, cis-diamminedichloroplatinum(II), reference compound] | 3/6 and 4/5 | 80% and 96% | – | – | – | – | – | – | – | – | – | – | – | – | – | – | – | – | –
2 | Cl.Cn1c(=O)c2c(ncn2CCCl)n(C)c1=O.Cn1c(=O)c2c(ncn2CCCl)n(C)c1=O.[Cl][Au]([Cl])[Cl] [Example 1, [AuCl3(7-chloroethyl-theophylline)](7-chloro-ethyltheophylline)·HCl] | – | – | ca. 24 hours | at least 64 mg/5 ml | 8 | 0/6 | -3 | 0/6 | 14 | 0/6 | 9 | 0/6 | 79 | 3/6 | 3 | 1/6 | – | – | –
3 | Cl.Cn1c(=O)c2c(ncn2CC(O)CO)n(C)c1=O.Cn1c(=O)c2c(ncn2CC(O)CO)n(C)c1=O.[Cl][Au]([Cl])[Cl] (stereo not shown) [Example 2, [AuCl3(7-(2,3-dihydroxy-propyl)theophylline)] (7-(2,3-dihydroxypropyl)theophylline)·HCl] | – | – | ca. 24 hours | at least 64 mg/5 ml | – | – | -13 | 0/6 | -11 | 0/6 | -3 | 0/6 | 69 | 2/6 | 34 | 1/6 | -62 | 0/6 | –
4 | [Au(III)(5-diazauracil)2Cl2]Cl | – | – | – | – | – | – | – | – | – | – | – | – | – | – | – | – | – | – | possess antitumor activity
